Measured values reported in patent publication US12590070B2, “Adamantane derivatives as inhibitors of focal adhesion kinase” (SAMJIN PHARMACEUTICAL CO., LTD., priority 2019, dated 2026).

Legend:
[1] = preclinical study; cited from earlier work
[2] = biological target: T1, InsR (Homo sapiens, UniProt P06213); assay: ADP-Glo Kinase Assay, InsR; type: biochemical; conditions: ADP-Glo Kinase Assay Kit
T1 construct: purchased Promega V9401
Procedure: (§1) Briefly, a kinase test was performed and quantified according to the manufacturer's instructions after treating the adamantane derivative compound of the present invention by using the ADP-Glo™ Kinase Assay Kit (FAK, Promega, V1971; Pyk2, Promega, V4083; InsR, Promega, V9401) containing each kinase of Promega.

[3] = biological target: T2, FAK (Homo sapiens, UniProt Q05397); assay: ADP-Glo Kinase Assay, FAK; type: biochemical; set-up: purchased Promega V1971; conditions: ADP-Glo Kinase Assay Kit
Procedure: as §1

[4] = biological target: T3, Pyk2 (Homo sapiens, UniProt Q14289); assay: ADP-Glo Kinase Assay, Pyk2; type: biochemical; conditions: ADP-Glo Kinase Assay Kit
T3 construct: purchased Promega V4083
Procedure: as §1

[5] = biological target: T2, FAK; assay: FAK [pY397] ELISA in MDA-MB-231 cells; type: cell-based; set-up: endogenous in cells; host or cells: MDA-MB-231; conditions: MDA-MB-231, treated for one hour, Table 2; read-out: FAK inhibitory activity (IC50)
Procedure: Briefly, an enzyme-linked immunosorbent assay test was performed according to the manufacturer's instructions by using the FAK (Phospho) [pY397] Human ELISA Kit (Thermo Fisher Scientific, KH00441) after dispensing 1×10^6 MDA-MB-231 cells into each well of a 6-well plate, inducing cell stabilization for 24 hours, and treating each compound at different concentrations (o, 1, 5, 10, 50, 100, 500, 1000 nM) for one hour.

T2 sequence (Q05397 whole entry): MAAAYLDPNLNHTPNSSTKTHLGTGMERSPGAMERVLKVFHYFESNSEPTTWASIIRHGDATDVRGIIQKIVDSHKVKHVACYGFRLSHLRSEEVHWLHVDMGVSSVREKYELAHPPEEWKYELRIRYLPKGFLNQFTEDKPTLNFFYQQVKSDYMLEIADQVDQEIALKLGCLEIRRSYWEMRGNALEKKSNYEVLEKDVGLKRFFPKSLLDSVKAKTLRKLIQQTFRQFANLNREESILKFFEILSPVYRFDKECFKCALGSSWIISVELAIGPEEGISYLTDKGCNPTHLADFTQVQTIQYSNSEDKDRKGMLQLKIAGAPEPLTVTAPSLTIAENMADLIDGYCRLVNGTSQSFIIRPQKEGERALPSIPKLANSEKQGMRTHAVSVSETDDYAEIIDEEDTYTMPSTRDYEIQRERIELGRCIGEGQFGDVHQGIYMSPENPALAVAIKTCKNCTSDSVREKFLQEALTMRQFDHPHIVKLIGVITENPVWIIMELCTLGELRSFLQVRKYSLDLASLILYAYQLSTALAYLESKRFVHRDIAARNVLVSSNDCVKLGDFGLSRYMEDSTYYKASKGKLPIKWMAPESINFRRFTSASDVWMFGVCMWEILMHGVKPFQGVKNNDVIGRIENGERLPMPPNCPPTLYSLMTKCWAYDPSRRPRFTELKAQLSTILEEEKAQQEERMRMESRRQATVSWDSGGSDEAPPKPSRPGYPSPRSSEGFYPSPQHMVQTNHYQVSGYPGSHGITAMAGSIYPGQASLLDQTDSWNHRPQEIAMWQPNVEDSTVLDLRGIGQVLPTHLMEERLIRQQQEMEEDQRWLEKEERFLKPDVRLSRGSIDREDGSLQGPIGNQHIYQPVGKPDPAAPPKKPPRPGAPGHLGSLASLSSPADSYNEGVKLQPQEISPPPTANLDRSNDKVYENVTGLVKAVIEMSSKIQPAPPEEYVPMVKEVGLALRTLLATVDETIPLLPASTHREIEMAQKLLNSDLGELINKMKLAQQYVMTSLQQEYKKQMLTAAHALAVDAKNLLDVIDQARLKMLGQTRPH
T3 sequence (Q14289 whole entry): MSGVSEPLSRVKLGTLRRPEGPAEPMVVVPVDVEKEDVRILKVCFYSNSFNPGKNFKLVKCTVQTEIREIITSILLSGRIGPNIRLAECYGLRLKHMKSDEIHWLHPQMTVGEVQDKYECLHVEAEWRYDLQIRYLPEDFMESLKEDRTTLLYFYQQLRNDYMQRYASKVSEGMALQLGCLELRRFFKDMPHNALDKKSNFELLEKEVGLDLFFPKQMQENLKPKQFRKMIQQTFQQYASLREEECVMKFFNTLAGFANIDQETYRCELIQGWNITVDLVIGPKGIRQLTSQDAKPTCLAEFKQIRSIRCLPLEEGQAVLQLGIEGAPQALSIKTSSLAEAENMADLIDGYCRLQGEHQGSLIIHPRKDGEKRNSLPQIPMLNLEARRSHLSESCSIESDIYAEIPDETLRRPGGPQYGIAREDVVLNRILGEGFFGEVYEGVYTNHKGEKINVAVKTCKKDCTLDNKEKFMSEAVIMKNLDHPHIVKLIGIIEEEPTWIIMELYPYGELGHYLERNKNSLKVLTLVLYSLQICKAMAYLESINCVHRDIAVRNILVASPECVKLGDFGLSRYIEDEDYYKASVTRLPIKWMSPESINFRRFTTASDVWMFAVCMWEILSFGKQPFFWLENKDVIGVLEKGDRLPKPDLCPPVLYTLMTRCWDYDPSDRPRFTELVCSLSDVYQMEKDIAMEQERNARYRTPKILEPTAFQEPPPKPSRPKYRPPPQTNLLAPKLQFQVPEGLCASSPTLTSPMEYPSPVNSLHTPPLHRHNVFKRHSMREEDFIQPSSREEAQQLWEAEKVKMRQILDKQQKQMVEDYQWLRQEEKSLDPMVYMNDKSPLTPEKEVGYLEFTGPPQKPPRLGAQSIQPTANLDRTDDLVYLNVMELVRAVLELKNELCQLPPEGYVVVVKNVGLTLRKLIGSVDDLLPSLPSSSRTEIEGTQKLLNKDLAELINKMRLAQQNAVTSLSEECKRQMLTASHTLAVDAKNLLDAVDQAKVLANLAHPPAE
T1 sequence (P06213 28-1382): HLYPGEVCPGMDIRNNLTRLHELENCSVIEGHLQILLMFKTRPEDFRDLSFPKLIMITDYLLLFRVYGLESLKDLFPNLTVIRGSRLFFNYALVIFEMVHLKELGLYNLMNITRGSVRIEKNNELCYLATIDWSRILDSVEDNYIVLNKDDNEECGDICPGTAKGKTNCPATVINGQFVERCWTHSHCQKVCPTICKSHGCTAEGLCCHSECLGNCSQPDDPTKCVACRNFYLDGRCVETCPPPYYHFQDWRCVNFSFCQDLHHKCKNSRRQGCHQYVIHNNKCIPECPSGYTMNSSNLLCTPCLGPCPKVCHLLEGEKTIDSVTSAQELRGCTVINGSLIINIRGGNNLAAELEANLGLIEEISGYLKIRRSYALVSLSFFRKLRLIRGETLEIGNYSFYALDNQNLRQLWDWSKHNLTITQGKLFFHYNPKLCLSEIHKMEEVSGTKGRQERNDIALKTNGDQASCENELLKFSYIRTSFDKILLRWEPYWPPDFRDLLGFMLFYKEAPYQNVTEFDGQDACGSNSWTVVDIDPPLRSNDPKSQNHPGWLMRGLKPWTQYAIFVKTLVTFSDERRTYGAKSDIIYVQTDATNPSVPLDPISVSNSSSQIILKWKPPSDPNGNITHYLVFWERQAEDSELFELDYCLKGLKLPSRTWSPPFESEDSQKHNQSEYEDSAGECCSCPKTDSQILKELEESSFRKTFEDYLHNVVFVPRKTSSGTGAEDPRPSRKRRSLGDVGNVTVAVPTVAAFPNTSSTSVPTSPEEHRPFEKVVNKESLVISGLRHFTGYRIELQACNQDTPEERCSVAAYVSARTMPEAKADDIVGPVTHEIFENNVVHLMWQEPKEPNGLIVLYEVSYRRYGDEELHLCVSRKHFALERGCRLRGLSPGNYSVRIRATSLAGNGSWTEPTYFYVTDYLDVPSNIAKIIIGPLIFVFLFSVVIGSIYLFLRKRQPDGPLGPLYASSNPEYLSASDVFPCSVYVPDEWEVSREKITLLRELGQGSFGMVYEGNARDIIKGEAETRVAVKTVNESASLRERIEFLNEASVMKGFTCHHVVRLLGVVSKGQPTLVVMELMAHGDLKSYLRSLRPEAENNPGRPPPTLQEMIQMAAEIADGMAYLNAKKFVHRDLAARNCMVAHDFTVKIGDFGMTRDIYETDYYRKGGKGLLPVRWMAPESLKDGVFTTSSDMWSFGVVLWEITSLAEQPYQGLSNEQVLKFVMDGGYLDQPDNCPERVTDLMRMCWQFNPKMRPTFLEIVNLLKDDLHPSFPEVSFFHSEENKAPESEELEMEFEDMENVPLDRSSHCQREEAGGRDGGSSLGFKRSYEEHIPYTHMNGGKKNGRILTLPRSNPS

Compound	side effects [1]	IC50 [2]	IC50 [3]	IC50 [4]	IC50 [5]
CNC(=O)c1ccccc1Nc1nc(Nc2ccc(N3CCOCC3)cc2OC)ncc1Cl [TAE226]	serious side effects such as unexpected inhibition of glucose metabolism, a decrease in blood concentration				
CNC(=O)c1cccc(C)c1Nc1nc(Nc2ccc(OC34CC5CC(C3)C(O)C(C5)C4)cc2OC)ncc1C(F)(F)F (stereo not drawn) [Compound 11, 2-((2-((4-((4-hydroxyadamantan-1-yl)oxy)-2-methoxyphenyl)amino)-5-(trifluoromethyl)pyrimidin-4-yl)amino)-N,3-dimethylbenzamide]		> 10000 nM	65.1 nM	231 nM	118 nM
CNC(=O)c1cccc(C)c1Nc1nc(Nc2ccc(NC3CCN([C@H]4C5CC6CC4C[C@@](O)(C6)C5)CC3)cc2OC)ncc1C(F)(F)F [Compound 8, 2-((2-((4-((1-((cis)-5-hydroxyadamantan-2-yl)piperidin-4-yl)amino)-2-methoxyphenyl)amino)-5-(trifluoromethyl)pyrimidin-4-yl)amino)-N,3-dimethylbenzamide]		> 10000 nM	53.3 nM		121 nM
CNC(=O)c1cccc(C)c1Nc1nc(Nc2ccc(NC(=O)C34CC5CC(C3)C(N3CCOCC3)C(C5)C4)cc2OC)ncc1C(F)(F)F (stereo not drawn) [Compound 25, N-(3-methoxy-4-((4-((2-methyl-6-(methylcarbamoyl)phenyl)amino)-5-(trifluoromethyl)pyrimidin-2-yl)amino)phenyl)-4-morpholinoadamantan-1-carboxamide]		> 10000 nM	45.5 nM	90.6 nM	27 nM
CNC(=O)c1cccc(C)c1Nc1nc(Nc2ccc(NC3C4CC5CC(C4)CC3C5)cc2OC)ncc1C(F)(F)F (stereo not drawn) [Compound 2, 2-((2-((4-(adamantan-2-ylamino)-2-methoxyphenyl)amino)-5-(trifluoromethyl)pyrimidin-4-yl)amino)-N,3-dimethylbenzamide]		> 10000 nM	206 nM		111 nM
CNC(=O)c1cccc(C)c1Nc1nc(Nc2ccc(OC3C4CC5CC3CC(C(=O)N3CCN(C)CC3)(C5)C4)cc2OC)ncc1C(F)(F)F (stereo not drawn) [Compound 20, 2-((2-((2-methoxy-4-((5-(4-methylpiperazin-1-carbonyl)adamantan-2-yl)oxy)phenyl)amino)-5-(trifluoromethyl)pyrimidin-4-yl)amino)-N,3-dimethylbenzamide]			98.9 nM		153 nM
CNC(=O)c1cccc(C)c1Nc1nc(Nc2ccc(NC3CCN(C4C5CC6CC(C5)CC4C6)CC3)cc2OC)ncc1C(F)(F)F (stereo not drawn) [Compound 6, 2-((2-((4-((1-(adamantan-2-yl)piperidin-4-yl)amino)-2-methoxyphenyl)amino)-5-(trifluoromethyl)pyrimidin-4-yl)amino)-N,3-dimethylbenzamide]		> 10000 nM	96.5 nM	157 nM	118 nM
CNC(=O)c1cccc(C)c1Nc1nc(Nc2ccc(NC3C4CC5CC3CC(C(=O)N3CCN(C)CC3)(C5)C4)cc2OC)ncc1C(F)(F)F (stereo not drawn) [Compound 23, 2-((2-((2-methoxy-4-((5-(4-methylpiperazin-1-carbonyl)adamantan-2-yl)amino)phenyl)amino)-5-(trifluoromethyl)pyrimidin-4-yl)amino)-N,3-dimethylbenzamide]			77.5 nM		234 nM
CNC(=O)c1cccc(C)c1Nc1nc(Nc2ccc(NC(=O)[C@]34CC5CC(C3)[C@@H](N3CC[C@H](NC(C)=O)C3)C(C5)C4)cc2OC)ncc1C(F)(F)F [Compound 27, (trans)-4-((S)-3-acetamidopyrrolidin-1-yl)-N-(3-methoxy-4-((4-((2-methyl-6-(methylcarbamoyl)phenyl)amino)-5-(trifluoromethyl)pyrimidin-2-yl)amino)phenyl) adamantan-1-carboxamide]		> 10000 nM	39.5 nM	81.4 nM	55 nM
CNC(=O)c1cccc(C)c1Nc1nc(Nc2ccc(OC34CC5CC(C3)C(=O)C(C5)C4)cc2OC)ncc1C(F)(F)F [Compound 10, 2-((2-((2-methoxy-4-((4-oxoadamantan-1-yl)oxy)phenyl)amino)-5-(trifluoromethyl)pyrimidin-4-yl)amino)-N,3-dimethylbenzamide]		> 10000 nM	96.7 nM		382 nM
CNC(=O)c1cccc(C)c1Nc1nc(Nc2ccc(N[C@H]3C4CC5CC3C[C@](O)(C5)C4)cc2OC)ncc1C(F)(F)F [Compound 1, 2-((2-((4-(((trans)-5-hydroxyadamantan-2-yl)amino)-2-methoxyphenyl)amino)-5-(trifluoromethyl)pyrimidin-4-yl)amino)-N,3-dimethylbenzamide]		> 10000 nM	82.9 nM	124 nM	83 nM
CNC(=O)c1cccc(C)c1Nc1nc(Nc2ccc(N3CCN([C@H]4C5CC6CC4C[C@@](O)(C6)C5)CC3)cc2OC)ncc1C(F)(F)F [Compound 5, 2-((2-((4-(4-((cis)-5-hydroxyadamantan-2-yl)piperazin-1-yl)-2-methoxyphenyl)amino)-5-(trifluoromethyl)pyrimidin-4-yl)amino)-N,3-dimethylbenzamide]		4680 nM	69.9 nM		32 nM
CNC(=O)c1cccc(C)c1Nc1nc(Nc2ccc(NC3CCN([C@H]4C5CC6CC4C[C@](O)(C6)C5)CC3)cc2OC)ncc1C(F)(F)F [Compound 7, 2-((2-((4-((1-((trans)-5-hydroxyadamantan-2-yl)piperidin-4-yl)amino)-2-methoxyphenyl)amino)-5-(trifluoromethyl)pyrimidin-4-yl)amino)-N,3-dimethylbenzamide]		6150 nM	46.9 nM	108 nM	38 nM
CNC(=O)c1cccc(C)c1Nc1nc(Nc2ccc(N3CCN(C4C5CC6CC(C5)CC4C6)CC3)cc2OC)ncc1C(F)(F)F (stereo not drawn) [Compound 3, 2-((2-((4-(4-(adamantan-2-yl)piperazin-1-yl)-2-methoxyphenyl)amino)-5-(trifluoromethyl)pyrimidin-4-yl)amino)-N,3-dimethylbenzamide]		> 10000 nM	154 nM	256 nM	92 nM
